# Reference: PMC4780272, “New Concept of the Biosynthesis of 4-Alkyl-L-Proline Precursors of Lincomycin, Hormaomycin, and Pyrrolobenzodiazepines: Could a γ-Glutamyltransferase Cleave the C–C Bond?” (Frontiers in Microbiology, 2016)
# Molecular target: T1, LmbW (Streptomyces lincolnensis, UniProt A9Y8T3)
# T1 construct: gene SLINC_0255; lmbW amplified from LK6 cosmid, cloned in pET42b(+), produced in E. coli BL21(DE3), purified as described for LmbC
# T1 sequence (A9Y8T3 1-350): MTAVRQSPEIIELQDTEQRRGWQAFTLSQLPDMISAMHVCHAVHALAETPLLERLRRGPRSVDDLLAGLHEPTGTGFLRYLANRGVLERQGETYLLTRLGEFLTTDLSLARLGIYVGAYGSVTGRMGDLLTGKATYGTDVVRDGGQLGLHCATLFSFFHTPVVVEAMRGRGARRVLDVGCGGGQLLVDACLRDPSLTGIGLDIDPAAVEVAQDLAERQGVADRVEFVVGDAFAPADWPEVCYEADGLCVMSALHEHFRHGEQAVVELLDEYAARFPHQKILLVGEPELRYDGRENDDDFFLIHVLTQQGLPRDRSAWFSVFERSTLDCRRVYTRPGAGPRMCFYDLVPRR
# Assay: LC-MS of methylated product
# Assay type: biochemical
# Conditions: methyl donor; co-substrate 3 4 mM, S-adenosylmethionine 4 mM, glycine buffer 40 mM pH 9.5, 28°C, 1 h
structure (smiles),measurement,value
C[S+](CC[C@H](N)C(=O)O)C[C@H]1O[C@@H](n2cnc3c(N)ncnc32)[C@H](O)[C@@H]1O (stereo partly shown) [S-adenosylmethionine],LC-MS of methylated product,"In the reaction with LmbW and S-adenosylmethionine, we identified a product"
